For orientation: IC50 means the concentration that gives 50% inhibition. As usually defined, the EC50 is the concentration needed to bring the measured effect to its halfway point.

Consider five compounds from patent US11440923B2, “Substituted macrocyclic indole derivatives” (Bayer Aktiengesellschaft, priority 2017, dated 2022).

Series [1] has as its target MCL-1 (Homo sapiens (Human), UniProt Q07820, K194A/K197A/R201A). Briefly: Protein-protein interaction assay MCL-1/Noxa BH3 peptide (MCL-1 assay, TR-FRET). It is filed as binding. As to conditions: MCL-1 Assay IC50 (median). As for the experimental part: The dose-dependent inhibition by the compounds described in this invention of the interaction between MCL-1 and the BH3 domain of Noxa (both human) was determined using a steady state binding competition assay with time-resolved fluorescence energy transfer (TR-FRET) readout. For that purpose MCL-1 (amino acids 173-321, N-terminal fused to Maltose Binding Protein (MBP) SEQ ID 1)) and a synthetic Noxa BH3-derived peptide of sequence Biotin-PEG2-PEG2-PAELEVE-Nva-[…]-amide (SEQ ID 2) served as protein receptor and tracer ligand respectively. The MBP-MCL-1 was purchased from Beryllium (Bedford, Mass., USA). The expression and purification of this protein construct has been described elsewhere (DOI:10.1371/journal.pone.0125010). The Noxa BH3-derived peptide can be obtained from e.g. Biosyntan (Berlin, Germany).
(§1) For that, 100-fold concentrated DMSO solutions were prepared by serial dilutions (1:3.4) of a 2 mM stock solution in a clear, 384-well microtiter plate (Greiner Bio-One, Frickenhausen, Germany). From there, 50 nl were transferred in a dark test plate (Greiner Bio-One, Frickenhausen, Germany). The assay was initiated by addition of 2 μL of a 2,5-fold concentrated MBP-MCL-1 solution (usually for a 1 nM end concentration in 5 μL reaction volume) in aqueous assay buffer [50 mM Tris/HCl pH 7, 100 mM sodium chloride (NaCl), 50 mM potassium fluoride (KF), 0.005% Tween-20, 2 mM DTT, 0.1% bovine gamma globulin (BGG)] to the compounds in the assay plate. This was followed by a 10-minute incubation step at 22° C. for pre-equilibration of the putative complex between MBP-MCL-1 and the compounds.
The mixture was incubated in the dark for one hour at 22° C. and then overnight at 4° C. The formation of MCL-1/Noxa complexes was determined by measuring the resonance energy transfer of the anti-MBP-Eu-cryptate antibody to the streptavidin-XL665 present in the reaction.
(§2) For that purpose, the fluorescence emission at 620 nm and 665 nm after excitation at 330-350 nm was measured in a TR-FRET measuring instrument, for instance a Rubystar or a Pherastar (both from BMG Lab Technologies, Offenburg, Germany) or a Viewlux (Perkin-Elmer). The ratio of the emission at 665 nm and at 622 nm was used as indicator of the amount of MCL-1/NOXA complexes present.
(§3) The resulting data (ratio) were normalized, taking 0% inhibition as the mean value of control measurements (usually 32 data points) where all reagents were included. In this case 50 nl DMSO were used instead of compounds. […] IC50 values were determined by regression analysis based on a 4 parameter equation (minimum, maximum, IC50, Hill; Y=Max+(Min−Max)/(1+(X/IC50)^Hill) using the Screener Software (Genedata).
A general note: Time-resolved FRET reads energy transfer from a long-lived donor to a nearby acceptor.

The subject of series [2] is SUDHL5 cells. Briefly: Induction of caspase-3/7 activity in SUDHL5 cells (Assay 4). The series is classed as cell-based. An outline of the steps:
(§4)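 Read-out: Caspase-Glo 3/7 luminescence (1 h, 37 °C) after cells, plated overnight, were treated with compounds for 3 h at 37 °C. Signal corrected for cell-free medium background and expressed relative to DMSO control mean.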

For series [3], the system named is SUDHL10 cells. Briefly: Induction of cytotoxicity in SUDHL10 cells (Assay 6). The series is classed as cell-based. As to conditions: 5 h, CellTiter-Glo, read-out: Cytotox SUDHL10 IC50 (median). An outline of the steps:
(§5)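 Overnight seeding, 37 °C; 5 h compound exposure; CellTiter-Glo, 15 min RT shake; luminescence read. No-cell medium control.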
In general terms: In ATP-based viability assays light output follows the ATP content of the culture.

For series [4], the system named is SUDHL5 cells. The experiment in a line: Antiproliferation assay SUDHL5 (Assay 7). The series is classed as cell-based. The settings on record: 72 h, CellTiter-Glo, read-out: Antiproli SUDHL5 IC50 (median). The essentials: (§6)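 CTG luminescence readout; cells plated, overnight at 37 °C, then 72 h compound treatment. Time-zero plate read in parallel. IC50 from day 0 and DMSO-normalised signal.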

The test system of series [5] is SUDHL5 cells. Briefly: Induction of cytotoxicity in SUDHL5 cells (Assay 6). It is filed as cell-based. The settings on record: 5 h, CellTiter-Glo, read-out: Cytotox SUDHL5 IC50 (median). An outline of the steps:
as §5

The test system of series [6] is SUDHL10 cells. Briefly: Induction of caspase-3/7 activity in SUDHL10 cells (Assay 4). It is filed as cell-based. An outline of the steps:
as §4

Series [7] concerns HMC-1-8 cells. Briefly: Antiproliferation assay HMC-1-8 (Assay 7). The series is classed as cell-based. The essentials:
as §6

Series [8] relates to AMO-1 cells. Briefly: Antiproliferation assay AMO-1 (Assay 7). The series is classed as cell-based. The settings on record: 72 h, CellTiter-Glo, read-out: Antiproli AMO-1 IC50 median. An outline of the steps: as §6
For series [9], the target named is BCL-XL (Homo sapiens (Human), UniProt Q07817). Briefly: Protein-protein interaction assay BCL-XL/Bad BH3 peptide (BCL-XL assay, TR-FRET). It is filed as binding. As to conditions: read-out: BCL-XL Assay IC50 (median). The procedure: Assay 2 Protein-Protein Interaction Assay: BCL-XL/Bad BH3 Peptide (BCL-XL Assay)
The dose-dependent inhibition by the compounds described in this invention of the interaction between BCL-XL and the BH3 domain of Bad (both human) was determined using a steady state binding competition assay with time-resolved fluorescence energy transfer (TR-FRET) readout. For that purpose BCL-XL (amino acids 1-212, C-terminal fused to a hexahistidine (6×His) tag (SEQ ID 3) and a synthetic Bad BH3-derived peptide of sequence Biotin-PEG2-PEG2-[…]-Nle-[…]-amide (SEQ ID 4) served as protein receptor and tracer ligand respectively. The recombinant BCL-XL protein (expressed in E. coli) was purchased from BPS Bioscience (San Diego, Calif., USA). The Bad BH3-derived peptide can be obtained from e.g. Biosyntan (Berlin, Germany).
as §1, with “In the assay 11 different concentrations of each compound (0.1 nM, 0.33 nM, 1.1 nM, 3.8 nM, 13 nM, 44 nM, 0.15 μM, 0.51 μM, 1.7 μM, 5.9 μM and 20 μM) were typically measured as duplicates in the same microtiter plate. For” for “For”, “His-BCL-XL” for “MBP-MCL-1”, “compounds. After that, 3 μL of a 1.67-fold concentrated solution (in assay buffer) consisting of Bad BH3-derived peptide (1 nM end concentration) and TR-FRET detection reagents [1.67 nM anti-His-Eu cryptate and 1.67 nM streptavidin-XL665 (both from Cisbio Bioassays, Codolet, France)], were added.” for “compounds.”
as §2, with “The mixture was incubated in the dark for one hour at 22° C. and then overnight at 4° C. The formation of BCL-XL/Bad complexes was determined by measuring the resonance energy transfer of the anti-His- Eu-cryptate antibody to the streptavidin-XL665 present in the reaction. For” for “For”, “BCL-XL/Bad” for “MCL-1/NOXA”
as §3

The mark [10] stands for this setting: Homo sapiens, SU-DHL-5, 3 h, caspase-3/7 induction, 3 h; read-out: Caspase SUDHL5 EC50 (median).
Where [11] appears, read: Homo sapiens, SU-DHL10, 3 h, caspase-3/7 induction, 3 h; read-out: Caspase SUDHL10 EC50 (median).
Where [12] appears, read: read-out: Antiproli HMC-1-8 IC50 median; 72 h, CellTiter-Glo.
Setting [13] is: read-out: Caspase SUDHL5 EC50 (median); caspase-3/7 induction, 3 h.
[14] abbreviates: read-out: Caspase SUDHL10 EC50 (median); caspase-3/7 induction, 3 h.

Where a name gives a salt, the structure may show the parent alone. Read-outs that look alike come from different tables or passages of the source. A value given as a limit tells only on which side of the number the result lay.

Chain of MCL-1 (Q07820 whole entry, looked up, stated change not applied, the tested form may be a part): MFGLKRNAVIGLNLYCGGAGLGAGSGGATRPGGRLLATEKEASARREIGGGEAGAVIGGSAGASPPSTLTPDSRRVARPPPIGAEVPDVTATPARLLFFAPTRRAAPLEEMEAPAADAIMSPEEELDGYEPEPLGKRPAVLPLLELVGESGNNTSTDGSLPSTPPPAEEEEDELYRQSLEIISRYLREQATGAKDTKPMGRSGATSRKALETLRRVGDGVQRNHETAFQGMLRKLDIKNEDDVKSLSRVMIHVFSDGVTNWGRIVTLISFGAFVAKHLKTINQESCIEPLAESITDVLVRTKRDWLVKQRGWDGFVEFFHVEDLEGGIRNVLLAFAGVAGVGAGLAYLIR
Chain of BCL-XL (Q07817 1-212): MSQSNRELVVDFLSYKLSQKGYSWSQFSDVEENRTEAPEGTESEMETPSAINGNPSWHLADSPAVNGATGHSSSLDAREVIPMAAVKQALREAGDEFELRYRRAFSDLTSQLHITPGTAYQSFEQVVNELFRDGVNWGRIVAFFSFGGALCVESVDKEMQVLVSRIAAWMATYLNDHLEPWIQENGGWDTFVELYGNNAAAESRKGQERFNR

For `Cc1c2c(nn1C)C(CCN1CCOCC1)OCCCCn1c(C(=O)O)c(CCCOc3cccc4ccccc34)c3cccc-2c31` (racemic) [Example 4, (rac)-2,3-dimethyl-15-[2-(morpholin-4-yl)ethyl]-7-[3-(naphthalen-1-yloxy)propyl]-2,10,11,12,13,15-hexahydropyrazolo[4′,3′:9,10][1,6]oxazacycloundecino[8,7,6-hi]indole-8-carboxylic Acid (Mixture of Stereoisomers)], the IC50 was found to be 1.1 nM in [1]; 1100 nM in series [3] (Homo sapiens, SU-DHL10, 5 h); 500 nM in series [4] (Homo sapiens, SU-DHL-5, 72 h); 550 nM in series [5] (Homo sapiens, SU-DHL-5, 5 h). In addition, the half-maximal effective concentration (EC50) in series [2] (setting [10]) is 520 nM; in series [6] (setting [11]) it was 990 nM.
For the compound `CCc1c2c(nn1C)C(CCN1CC(F)(F)C1)OCCCCn1c(C(=O)O)c(CCCOc3cccc4cc(F)ccc34)c3ccc(Cl)c-2c31` (racemic) [Example 77, (rac)-4-chloro-(15-rac)-[2-(3,3-difluoroazetidin-1-yl)ethyl]-3-ethyl-7-{3-[(6-fluoronaphthalen-1-yl)oxy]propyl}-2-methyl-2,10,11,12,13,15-hexahydropyrazolo[4′,3′:9,10][1,6]oxazacycloundecino[8,7,6-hi]indole-8-carboxylic Acid], the IC50 was found to be 1.7 nM in series [1]; 520 nM in [7] (72 h, CellTiter-Glo, read-out: Antiproli HMC-1-8 IC50 median); 100 nM in [3] (Homo sapiens, SU-DHL10, 5 h); 31.5 nM in series [8] (Homo sapiens, AMO1, 72 h); 71 nM in series [4] (Homo sapiens, SU-DHL-5, 72 h); 45 nM in [5] (Homo sapiens, SU-DHL-5, 5 h). Also, the EC50 is 31 nM in [2] (setting [10]) and 37 nM in series [6] (setting [11]).
As to `CCc1c2c(nn1C)C(C(F)(F)F)OCCCCn1c(C(=O)O)c(CCCOc3cccc4ccccc34)c3ccc(Cl)c-2c31` (single isomer, unassigned; enantiomer 2) [Example 34, (−)-4-chloro-3-ethyl-2-methyl-7-{3-[(naphthalen-1-yl)oxy]propyl}-15-(trifluoromethyl)-2,10,11,12,13,15-hexahydropyrazolo[4′,3′:9,10][1,6]oxazacycloundecino[8,7,6-hi]indole-8-carboxylic Acid—N-ethylethanamine Salt (Enantiomer 2)], the IC50 in series [7] (setting [12]) is 20700 nM; in series [3], 26000 nM; in series [8], 30900 nM; in [9], above 20000 nM; in series [5], 7100 nM. Besides, the EC50 in series [2] (setting [13]) and in [6] (setting [14]) was above 33000 nM throughout.
With `CCc1c2c(nn1C)C(C1CC1)OCCCCn1c(C(=O)O)c(CCCOc3cccc4cc(F)ccc34)c3ccc(Cl)c-2c31` (single isomer, unassigned; enantiomer 2) [Example 40, (−)-4-chloro-15-cyclopropyl-3-ethyl-7-{3-[(6-fluoronaphthalen-1-yl)oxy]propyl}-2-methyl-2,10,11,12,13,15-hexahydropyrazolo[4′,3′:9,10][1,6]oxazacycloundecino[8,7,6-hi]indole-8-carboxylic Acid—N-ethylethanamine Salt (Enantiomer 2)], the half-maximal inhibitory concentration (IC50) in [7] (setting [12]) is 23200 nM; in series [3] it was 29000 nM; in series [9], above 20000 nM; in series [5] it was 20000 nM. The concentration for a half-maximal effect (EC50) in series [2] (setting [13]) is above 33000 nM; in series [6] (setting [14]) it was 25000 nM.
For `Cc1c2c(nn1C)C(CCN1CCOCC1)OCCCCn1c(C(=O)O)c(CCCOc3cccc4ccccc34)c3cccc-2c31` (single isomer, unassigned; stereoisomer 1) [Example 5, 2,3-dimethyl-15-[2-(morpholin-4-yl)ethyl]-7-[3-(naphthalen-1-yloxy)propyl]-2,10,11,12,13,15-hexahydropyrazolo[4′,3′:9,10][1,6]oxazacycloundecino[8,7,6-hi]indole-8-carboxylic Acid (Stereoisomer 1)], the IC50 in [1] is 1.2 nM; in [3], 490 nM; in series [4], 440 nM; in series [5] it was 340 nM. The EC50 in [2] (caspase-3/7 induction, 3 h; read-out: Caspase SUDHL5 EC50 (median)) was 300 nM; in [6] (caspase-3/7 induction, 3 h; read-out: Caspase SUDHL10 EC50 (median)) it was 520 nM.
